Experimental data from patent US12570612B2, “Substituted nitrogen heterocyclic compound and anesthetic effect thereof” (priority 2019, dated 2026).
Like-named read-outs stand apart in the source and are kept apart here.

What was measured:
Format in all cases: in vivo
Sprague-Dawley rats [1] = test: Pharmacological effect and adverse reactions under the equivalent dose (2ED50), Group D compounds; conditions: for Righting reflex duration / Sedation duration / Onset time: 2ED50, tail vein, rats, n=8; for Adverse reaction: Convulsions / Adverse reaction: Cough, broken-winded / Adverse reaction: Euphoria / Adverse reaction: Four limbs rigidity / Adverse reaction: Red urine / Adverse reaction: Slower breathing, Tetany convulsion / Adverse reaction: Systemic stiffness, Convulsions, Opisthotonus / Adverse reaction: Tongue stretching / Adverse reaction: Tremor: equivalent dose (2 × ED50), number of rats of n = 8
Source text: Evaluation index: onset time: from the completion of drug injection to the disappearance of forepaw righting reflex in rats; Duration of anesthesia: the time from the disappearance of rat forepaw righting reflex to the recovery of rat forepaw righting reflex; Recovery time of anesthesia: the time from the […] to complete recovery;

Sprague-Dawley rats [2] = test: animal or person; conditions: rats; for ED50: LORR, up and down method, tail vein, class symbols
Source text: Evaluating indicator: The end point of anesthesia: the disappearance of forepaw righting reflex (lorr) was used as the end point of anesthesia; General anesthesia effect: the disappearance of forepaw righting reflex in rats lasting for 30 seconds is taken as the index of general anesthesia effect; Anesthesia recovery index: the recovery of rat forepaw righting reflex was used as the index of anesthesia recovery.

Sprague-Dawley rats [3] = conditions: tail vein
[4] = Rattus norvegicus, read-out: ED50

| SMILES | Righting reflex duration (Sprague-Dawley rats [1]) [min] | Sedation duration (Sprague-Dawley rats [1]) [min] | Onset time (Sprague-Dawley rats [1]; unit min) [s] | Adverse reaction: Convulsions (Sprague-Dawley rats [1]) | Adverse reaction: Cough, broken-winded (Sprague-Dawley rats [1]) | Adverse reaction: Euphoria (Sprague-Dawley rats [1]) | Adverse reaction: Four limbs rigidity (Sprague-Dawley rats [1]) | Adverse reaction: Red urine (Sprague-Dawley rats [1]) | Adverse reaction: Slower breathing, Tetany convulsion (Sprague-Dawley rats [1]) | Adverse reaction: Systemic stiffness, Convulsions, Opisthotonus (Sprague-Dawley rats [1]) | Adverse reaction: Tongue stretching (Sprague-Dawley rats [1]) | Adverse reaction: Tremor (Sprague-Dawley rats [1]) | ED50 (Sprague-Dawley rats [2]; [4]) [mg/kg] | Approximate therapeutic index (Sprague-Dawley rats [2]) | Minimal lethal dose (Sprague-Dawley rats [3]) [mg/kg] | ED50 (Sprague-Dawley rats [2]) | Onset time (Sprague-Dawley rats [1]; unit s) [s] |
| --- | --- | --- | --- | --- | --- | --- | --- | --- | --- | --- | --- | --- | --- | --- | --- | --- | --- |
| COC(OC)(OCC(C)(C)C)C(=O)c1ccnn1[C@H](C)c1ccccc1 [Compound D6] | 1.33 ± 0.19 | 7.35 ± 1.45 | <60 | 0 | 0 | 0 | 1 | 8 | 0 | 0 | 0 | 2 | 2 to 6 | >7.3 | >12.4 | – | – |
| C=CCOC(OC)(OC)C(=O)c1ccnn1[C@H](C)c1ccccc1 [Compound D7] | 0.55 ± 0.59 | 8.52 ± 2.29 | <60 | 0 | 0 | 0 | 1 | 8 | 0 | 0 | 1 | 1 | 0.5 to 1 | >5.4 | >3.2 | – | – |
| COC(OC)(OC)C(=O)c1cnnn1[C@H](C)c1ccccc1 [Compound D42] | 1.38 ± 0.15 | 3.83 ± 0.74 | <60 | 6 | 0 | 0 | 0 | 8 | 0 | 0 | 1 | 1 | 0.04 to 0.5 | >4.2 | >1.8 | – | – |
| C#CCOCC(OC)(OC)C(=O)c1cncn1[C@H](C)c1ccccc1 [Compound D74] | 1.29 ± 0.49 | 4.78 ± 1.24 | <60 | 0 | 0 | 0 | 1 | 8 | 0 | 0 | 0 | 1 | – | >16.6 | >10.2 | +++++ (+++++ indicates that the measured ED50 is greater than 6.00 mg/kg (excluding 6.00 mg/kg)) | – |
| C=CCOCC(OC)(OC)C(=O)c1cncn1[C@H](C)c1ccccc1 [Compound D75] | 1.59 ± 0.67 | 5.28 ± 0.68 | – | 0 | 0 | 0 | 0 | 8 | 0 | 0 | 0 | 0 | – | >5.4 | >11.2 | +++++ (+++++ indicates that the measured ED50 is greater than 6.00 mg/kg (excluding 6.00 mg/kg)) | <30 |
| CCOC(OC)(OC)C(=O)c1cncn1[C@H](C)c1ccccc1 [Compound D78] | 4.02 ± 1.35 | 7.29 ± 1.20 | – | 0 | 0 | 0 | 0 | 8 | 0 | 2 | 1 | 0 | 0.5 to 1 | >6.2 | >6.8 | – | <30 |
| CCOC(OC)(OCC)C(=O)c1cncn1[C@H](C)c1ccccc1 [Compound D79] | 1.75 ± 0.76 | 5.84 ± 1.46 | – | 6 | 0 | 0 | 0 | 8 | 0 | 0 | 0 | 1 | 0.5 to 1 | >6.4 | >2.7 | – | <30 |
| COC(=O)C(=O)c1cncn1[C@H](C)c1ccccc1 [Compound D80] | 1.58 ± 0.61 | 6.42 ± 1.68 | – | 0 | 0 | 0 | 4 | 8 | 0 | 0 | 0 | 0 | > 6 | >2.9 | >12.2 | – | <30 |
| CC(C)CCOC(=O)C(=O)c1cncn1[C@H](C)c1ccccc1 [Compound D82] | 0.98 ± 0.31 | 6.70 ± 1.46 | <60 | 0 | 0 | 0 | 2 | 8 | 0 | 0 | 1 | 0 | 2 to 6 | >6.3 | >7.8 | – | – |
| C[C@H](c1ccccc1)n1cncc1C(=O)C(=O)OCC(C)(C)C [Compound D86] | 1.24 ± 0.12 | 7.88 ± 1.94 | <60 | 0 | 0 | 0 | 0 | 8 | 0 | 2 | 0 | 0 | 1 to 2 | >7.3 | >9.8 | – | – |
| COC(OC)C(=O)c1cncn1[C@H](C)c1ccccc1 [Compound D87] | 4.34 ± 0.54 | 8.26 ± 2.74 | – | 0 | 0 | 0 | 0 | 8 | 0 | 5 | 0 | 0 | 1 to 2 | >6.8 | >13.2 | – | <30 |
| CCOC(OCC)C(=O)c1cncn1[C@H](C)c1ccccc1 [Compound D88] | 1.86 ± 1.02 | 7.08 ± 1.06 | – | 0 | 0 | 0 | 1 | 8 | 0 | 7 | 1 | 1 | 1 to 2 | >10.3 | >2.6 | – | <30 |
| COC(OC)(OC)C(=O)c1c(F)ncn1[C@H](C)c1ccccc1 [Compound D93] | 2.50 ± 0.30 | 6.89 ± 0.80 | – | 0 | 0 | 0 | 0 | 8 | 0 | 8 | 1 | 0 | 0.04 to 0.5 | >25.1 | >1.8 | – | <30 |
| CCOC(OCC)C(=O)c1c(F)ncn1[C@H](C)c1ccccc1 [Compound D101] | 1.80 ± 0.58 | 7.20 ± 3.21 | – | 0 | 0 | 0 | 0 | 8 | 0 | 2 | 0 | 0 | 0.04 to 0.5 | >10.5 | >9.3 | – | <30 |
